Test results taken from patent US12390423B2 (priority 2019, dated 2025).

Key:
[1] = system: INS-1 (832/13) cells; assay: Cellular ATP content in INS-1 (832/13) cells; format: cell-based, rat; conditions: 25 μM AvoB, palmitate challenged, 24 h
Description: Total cellular ATP content was determined using the ATP bioluminescent assay kit (Calbiochem, 119107). Briefly, cells were seeded in white walled 96-well plates (1.2×10^4 cells/well for INS-1 and 2×10^4 cells/well for C2C12) and treated for 24 h (C2C12 cells were differentiated for 5 days prior to treatments whereas INS-1 cells were treated 24 h after seeding). After treatment, culture media was removed, and cells were lysed with nucleotide releasing buffer with gentle shaking for 5 min. ATP monitoring enzyme was then added to cell lysates and plates and luminescence was read in a Biotek Synergy HT spectrophotometer (Biotek; Winooski, VT).

[2] = Treatment model of diet-induced obesity (DIO) in mice: body and fat pad weights; format: in vivo, C57BL/6J mice; conditions: HFD mice, AvoB 100 mg/kg b.w. oral gavage twice weekly for 5 weeks, vs HFD-control
Description: For the treatment study, twelve-week-old male C57BL/6J mice were purchased from Jackson Laboratory (Bar Harbor, ME) and allowed to acclimatize for 1 week. After acclimatization, mice received either a high-fat diet (HFD) (60% kcal from lard; Research Diet D12492; Research Diets, USA) or a standard diet (10-13% kcal from fat; Teklad 2014; Envigo, USA) for eight weeks. […] Animal weights were monitored twice weekly. At study completion, animals were euthanized (10-12 h into their dark cycle) via CO2 followed by exsanguination, after which tissue and blood was collected.

[3] = system: INS-1 (832/13) cells; assay: Fatty acid oxidation ([1-14C]-palmitate) in INS-1 (832/13) cells; format: cell-based, rat; conditions: 25 μM AvoB, 0.5 mM palmitate-BSA/1 mM L-carnitine, 24 h
Description: FAO in cell lines was determined using established methods. […] [1-^14C]-palmitate was prepared and applied to cells as follows: purchased stock supplied in ethanol (PerkinElmer, MA, USA) was dried in vacuo and then re-suspended in a solution containing unlabeled carrier in BSA to yield a mixture of 7% BSA [w/v], 2.5 mM palmitate with [1-^14C]-palmitate at a final concentration of 10 μCi/mL. Following a 16 hour incubation at 37° C., the solution containing radiolabeled palmitate was diluted with respective serum free cell culture media (low glucose RPMI media for INS-1 (832/13) cells and low glucose DMEM for C2C12 myotubes) containing 1 mM L-carnitine to a final concentration of 0.3% BSA, 100 μM palmitate, and 0.4 μCi/mL [1-^14C]-palmitate. Following incubation of treated cells with [1-^14C]-palmitate, 400 μL of well media was transferred to acidification vials containing perchloric acid and capped with CO2 filter traps impregnated with 1M NaOH. […] The CO2 trap was transferred to scintillation vials containing 4 mL of scintillation fluid and complete FAO was quantified using a Tri-Carb 2910 TR liquid scintillation analyzer (PerkinElmer). The amount of radioactivity in the media was also determined after pelleting cells and debris (14,000×g, 10 min); this quantified acid soluble metabolites (ASMs), an indirect measure of incomplete FAO.

[4] = system: C2C12 myotubes; assay: Glucose oxidation and 2-NBDG glucose uptake in C2C12 myotubes; format: cell-based, mouse
Description: C2C12 myotubes and INS-1 (832/13) cells treated as in the FAO assays described above and then incubated with D-[^14C(U)]-glucose (0.58 μC/mL) and unlabeled glucose (final glucose concentration 200 μM) for 4 h subsequent to which [^14C]—CO2 (representing complete glucose oxidation) and ASMs (representing incomplete glucose oxidation) were captured and quantified as described in the FAO method. For C2C12 myotubes, glucose oxidation and uptake was measured with and without a 30 min pre-incubation with 100 nM insulin to determine basal and insulin-mediated glucose oxidation or uptake, respectively.
To measure glucose uptake in C2C12 myotubes, a fluorescent D-glucose analog 2-(N-[7-nitrobenz-2-oxa-1,3-diazol-4-yl]amino)-2-deoxy-D-glucose (2-NBDG) was utilized. Briefly, myotubes were treated for 24 h with test compound after which they were washed twice with PBS and starved for 1 h in serum and glucose free DMEM. Following starvation, 100 nM insulin was added for 30 min after which 60 μM 2-NBDG was added to each well and allowed to incubate for 30 min. The 2-NBDG uptake reaction was then stopped by removing the incubation medium and washing the cells twice with PBS after which the cells were trypsinized and collected for flow cytometry analysis (Guava 8HT; EMD Millipore, Billerica, MA).

[5] = Complete blood count and plasma FFA/TAG in DIO mice; format: in vivo
Description: Complete blood count with differential (CBC w/diff) analysis was done on 500 μL of whole blood by the animal health laboratory at the University of Guelph. Plasma insulin, FFAs, and triacylglycerols (TAGs) were measured using a rat/mouse insulin ELISA kit (Millipore, Rat/Mouse Insulin Detection kit), FFA fluorometric assay kit (Cayman, MI, USA), and the TAG colorimetric assay kit (Cayman, MI, USA), respectively. Manufacturer's protocols were followed for all kits.

[6] = system: INS-1 (832/13) cells; assay: Cytosolic calcium determination (fluo-3AM) in INS-1 (832/13) cells; format: cell-based, rat; conditions: 0.5 mM palmitate, non-stimulatory glucose, AvoB 25 μM, ETO 100 μM, TMB-8 10 μM
Description: INS-1 (832/13) cells were treated as described for the FAO assays but also with metabolic modulators dichloroacetate (DCA) (1 mM) and trimetazidine (25 μM) as well as 10 μM endoplasmic reticulum calcium blocker 8-(N,N-Diethylamino)-octyl-3,4,5-trimethoxybenzoate HCl (TMB-8) (Sigma Aldrich) or 25 nM cyclosporin (Sigma Aldrich) in the presence of 0.5 mM palmitate/1 mM L-carnitine. Cytosolic calcium was measured in INS-1 (832/13) cells using fluo-3AM (Invitrogen, F1241) charged fluorescent dye that accumulates in the cytosol and emits green fluorescence after binding calcium ions. A stock solution of 10 mM fluo-3AM was diluted to 5 μM in fluo-3AM loading buffer (10 mM 4-(2-hydroxyethyl)-1-piperazineethanesulfonic acid (HEPES), 137 mM NaCl, […], 1 mM Na2HPO4, 5 mM glucose, and 0.5 mM MgCl2 (pH 7.4)]. After treatment, cells were incubated in fluo-3AM loading buffer for 30 min at 37° C. with gentle agitation after which cells were washed twice with PBS, trypsinized and collected for flow cytometry analysis. Cytosolic calcium was quantified by taking the mean green fluorescence values of live gated cells and normalizing to vehicle control.

[7] = ad libitum HFD mice, AvoB 100 mg/kg b.w. twice weekly, vs control-HFD, endpoint

Substance: avocatin B [AvoB]
- Total cellular ATP content [1]: restores total cellular ATP content
- Gonadal and mesenteric fat pad (GFP and MFP) weights [2]: reductions in both gonadal and mesenteric fat pad (GFP and MFP) weights
- Mouse weight at study completion [2]: weighed significantly less than HFD-control mice
- Complete FAO ([1-14C]-palmitate oxidation to CO2) [3]: inhibited complete FAO
- Insulin stimulated glucose uptake (2-NDBG) ([4]; 25 μM AVO, 0.5 mM palmitate 24 h, vs palmitate only): increased glucose uptake compared to palmitate only treated cells
- Basal and insulin stimulated glucose oxidation (D-[14C(U)]-glucose to CO2) ([4]; 25 μM AvoB, excess palmitate, 24 h): increased basal and insulin stimulated glucose oxidation
- Blood markers of toxicity (CBC w/diff) ([5]; HFD mice, AvoB 100 mg/kg b.w. twice weekly for 5 weeks, study endpoint): no effect on blood markers of toxicity
- Plasma free fatty acids (FFA) [5, 7]: increased plasma levels of FFA
- Plasma triacylglycerols (TAG) [5, 7]: increased
- Cytosolic Ca2+ (Fluo-3AM) [6]: able to reduce cytosolic Ca^2+
